Measurements reported in US20260184663A1, “INDENE COMPOUNDS, PHARMACEUTICAL COMPOSITIONS THEREOF, AND THEIR THERAPEUTIC APPLICATIONS” (NucMito Pharmaceuticals co. Ltd., priority 2022, published 2026).

What was measured:
Format in all cases: cell-based
[1] = test system: MDA-MB-231 (breast cancer); test: Antiproliferative activity (CCK-8 cell viability), MDA-MB-231; details: Homo sapiens, 72 h, read-out: Antiproliferative activity in cancerous cells, MDA-MB-231 (inhibition of cell growth); for inhibition at 3.3 µM: Compound concentration: 3.3 μM; for inhibition at 10 µM: Compound concentration: 10 μM; for inhibition at 30 µM: Compound concentration: 30 μM
Method in brief: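 Growth inhibition of human MDA-MB-231 breast cancer cells was assessed with a Cell Counting Kit-8. Cells cultured in DMEM plus 10% FBS were seeded at 2,000-5,000 cells/well, treated after attachment, and kept 72 h at 37° C. CCK-8 solution (10 μL) was added for 4 h, and absorbance at 450 nm was compared with DMSO-treated controls.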

HepG2 (liver cancer) = test: Antiproliferative activity (CCK-8 cell viability), HepG2; details: Homo sapiens, 72 h, read-out: Antiproliferative activity in cancerous cells, HepG2 (inhibition of cell growth); for inhibition at 3.3 µM: Compound concentration: 3.3 μM; for inhibition at 10 µM: Compound concentration: 10 μM; for inhibition at 30 µM: Compound concentration: 30 μM
Method in brief: (§1)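 Growth inhibition graded in bands from percent viability against DMSO vehicle, read as CCK-8 absorbance at 450 nm. Compound tested at 3.3, 10 or 30 μM for 72 h, 37 °C; media contained 10% FBS: DMEM for HepG2/SW480, MEM for HeLa, F-12K for A549.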

SW480 (colon cancer) = test: Antiproliferative activity (CCK-8 cell viability), SW480; details: Homo sapiens, 72 h, read-out: Antiproliferative activity in cancerous cells, SW480 (inhibition of cell growth); for inhibition at 3.3 µM: Compound concentration: 3.3 μM; for inhibition at 10 µM: Compound concentration: 10 μM; for inhibition at 30 µM: Compound concentration: 30 μM
Method in brief: as §1

[2] = test system: B16F10 (malignant melanoma); test: Antiproliferative activity (CCK-8 cell viability), B16F10; details: Mus musculus, 72 h, read-out: Antiproliferative activity in cancerous cells, B16F10 (inhibition of cell growth); for inhibition at 3.3 µM: B16-F10, Compound concentration: 3.3 μM; for inhibition at 10 µM: B16-F10, Compound concentration: 10 μM; for inhibition at 30 µM: B16-F10, Compound concentration: 30 μM
Method in brief: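 Cell growth inhibition was measured in B16F10 malignant melanoma cells with a Cell Counting Kit-8 viability assay. Cells were maintained in DMEM plus 10% fetal bovine serum, seeded at 2,000-5,000 cells/well in 96-well plates, and treated for 72 h at 37° C. Viability was expressed relative to DMSO-treated vehicle control wells.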

[3] = test system: A431 (epidermoid carcinoma); test: Antiproliferative activity (CCK-8 cell viability), A431; details: Homo sapiens, 72 h, read-out: Antiproliferative activity in cancerous cells, A431 (inhibition of cell growth); for inhibition at 3.3 µM: A-431, Compound concentration: 3.3 μM; for inhibition at 10 µM: A-431, Compound concentration: 10 μM; for inhibition at 30 µM: A-431, Compound concentration: 30 μM
Method in brief: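 This growth inhibition assay used A431 cells maintained in Dulbecco's modified Eagle's medium plus 10% fetal bovine serum. Cells were seeded in 96-well plates, treated with compound for 72 h at 37° C., and then given 10 μL CCK-8 solution. After a further 4 h, absorbance was read at 450 nm.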

[4] = test system: A549 (lung adenocarcinoma); test: Antiproliferative activity (CCK-8 cell viability), A549; details: Homo sapiens, 72 h, read-out: Antiproliferative activity in cancerous cells, A549 (inhibition of cell growth); for inhibition at 3.3 µM: Compound concentration: 3.3 μM; for inhibition at 10 µM: Compound concentration: 10 μM; for inhibition at 30 µM: Compound concentration: 30 μM
Method in brief: as §1

HeLa (cervical cancer) = test: Antiproliferative activity (CCK-8 cell viability), HeLa; details: Homo sapiens, 72 h, read-out: Antiproliferative activity in cancerous cells, HELA (inhibition of cell growth); for inhibition at 3.3 µM: Compound concentration: 3.3 μM; for inhibition at 10 µM: Compound concentration: 10 μM; for inhibition at 30 µM: Compound concentration: 30 μM
Method in brief: as §1

| SMILES | inhibition at 3.3 µM [1] [%] | inhibition at 10 µM [1] [%] | inhibition at 30 µM [1] [%] | inhibition at 3.3 µM (HepG2 (liver cancer)) [%] | inhibition at 10 µM (HepG2 (liver cancer)) [%] | inhibition at 30 µM (HepG2 (liver cancer)) [%] | inhibition at 3.3 µM (SW480 (colon cancer)) [%] | inhibition at 10 µM (SW480 (colon cancer)) [%] | inhibition at 30 µM (SW480 (colon cancer)) [%] | inhibition at 3.3 µM [2] [%] | inhibition at 10 µM [2] [%] | inhibition at 30 µM [2] [%] | inhibition at 3.3 µM [3] [%] | inhibition at 10 µM [3] [%] | inhibition at 30 µM [3] [%] | inhibition at 3.3 µM [4] [%] | inhibition at 10 µM [4] [%] | inhibition at 30 µM [4] [%] | inhibition at 3.3 µM (HeLa (cervical cancer)) [%] | inhibition at 10 µM (HeLa (cervical cancer)) [%] | further results |
| --- | --- | --- | --- | --- | --- | --- | --- | --- | --- | --- | --- | --- | --- | --- | --- | --- | --- | --- | --- | --- | --- |
| CC1=C(CC(=O)O)c2cc(Br)ccc2/C1=C/c1ccc(Oc2ccc(Cl)cc2)cc1 [E27, (E)-2-(5-Bromo-1-(4-(4-chlorophenoxy)benzylidene)-2-methyl-1H-inden-3-yl)acetic acid] | ≥ 50 | ≥ 50 | ≥ 50 | < 30 | ≥ 50 | ≥ 50 | < 30 | 30 to 50 | ≥ 50 | ≥ 50 | ≥ 50 | ≥ 50 | ≥ 50 | ≥ 50 | ≥ 50 | < 30 | ≥ 50 | ≥ 50 | ≥ 50 | ≥ 50 | inhibition at 30 µM (HeLa (cervical cancer)): ≥ 50% |
| CC1=C(CC(=O)O)c2cc(Cl)c(Cl)cc2/C1=C/c1ccc(Oc2ccc(F)cc2)cc1 [E28, (E)-2-(5,6-Dichloro-1-(4-(4-fluorophenoxy)benzylidene)-2-methyl-1H-inden-3-yl)acetic acid] | ≥ 50 | ≥ 50 | ≥ 50 | ≥ 50 | ≥ 50 | ≥ 50 | < 30 | ≥ 50 | ≥ 50 | ≥ 50 | ≥ 50 | ≥ 50 | 30 to 50 | ≥ 50 | ≥ 50 | ≥ 50 | ≥ 50 | ≥ 50 | ≥ 50 | ≥ 50 | inhibition at 30 µM (HeLa (cervical cancer)): ≥ 50% |
| CC1=C(CC(=O)O)c2cc(Cl)ccc2/C1=C/c1ccc(Oc2ccc(F)c(F)c2)cc1 [E29, (E)-2-(5-Chloro-1-(4-(3,4-difluorophenoxy)benzylidene)-2-methyl-1H-inden-3-yl)acetic acid] | ≥ 50 | ≥ 50 | ≥ 50 | < 30 | ≥ 50 | ≥ 50 | < 30 | ≥ 50 | ≥ 50 | ≥ 50 | ≥ 50 | ≥ 50 | < 30 | 30 to 50 | ≥ 50 | < 30 | ≥ 50 | ≥ 50 | ≥ 50 | ≥ 50 | inhibition at 30 µM (HeLa (cervical cancer)): ≥ 50% |
| CC1=C(CC(=O)O)c2cc(Cl)ccc2/C1=C/c1ccc(Oc2ccc(C(C)C)cc2)cc1 [E30, (E)-2-(5-Chloro-1-(4-(4-isopropylphenoxy)benzylidene)-2-methyl-1H-inden-3-yl)acetic acid] | ≥ 50 | ≥ 50 | ≥ 50 | 30 to 50 | ≥ 50 | ≥ 50 | ≥ 50 | ≥ 50 | ≥ 50 | ≥ 50 | ≥ 50 | ≥ 50 | < 30 | ≥ 50 | ≥ 50 | < 30 | ≥ 50 | ≥ 50 | ≥ 50 | ≥ 50 | inhibition at 30 µM (HeLa (cervical cancer)): ≥ 50% |
